Reference: paper PMC7663597, “Structure–Activity Relationship of Aloperine Derivatives as New Anti–Liver Fibrogenic Agents” (Molecules, 2020)

How the values were obtained:
[1] = tested on: COL1A1 promotor; test: COL1A1 promotor luciferase reporter gene assay in TGF-β1-treated LX-2 cells; assay type: cell-based, human; details: Homo sapiens; for inhibition at 40 µM / inhibition at 80 µM: LX-2, 24 h; for inhibition at 40 µM: 24 h with TGF-β1, read-out: Inhibition Percentage 40 μM (inhibition rate of COL1A1 promotor's activity); for inhibition at 80 µM: 24 h with TGF-β1, read-out: Inhibition Percentage 80 μM (inhibition rate of COL1A1 promotor's activity); for IC50: read-out: IC50 (concentration required to inhibit 50% of COL1A1 promotor's activity)
Description: A single luciferase reporter gene detection model was applied to evaluate the inhibitory effects of all target compounds on the expression of COL1A1 promotor in human hepatic stellate LX-2 cells at the concentrations of 40 and 80 μM, taking EGCG as the positive control. The LX-2 cell lines were transfected with COL1A1 promotor luciferase plasmid pGL4.17-COL1A1P for 24 h, then simultaneously treated with TGF-β1 and a tested compound for 24 h.
(§1) Cells were maintained on Dulbecco’s Modified Eagle’s medium (DMEM), laid on 96-well plate. DMEM medium was supplemented with 10% fetal bovine serum (FBS) at 37 °C humidified atmosphere with 5% CO2. Furthermore, serum-free culture was required until the cells were confluent at 90−95%. 24 h later the cells were treated with a tested compound (40 and 80 μM) for 24 h. The COL1A1 promotor activity was detected by the Bright-Glo luciferase assay system. Alternatively, to test the acute effects of compound on luciferase activity, 24 h later the cells were lysed and the lysate was treated with a tested compound (80 μM) for 2 h, then the luciferase was detected by the Bright-Glo luciferase assay system (Promega, Madison, WI, USA).

[2] = molecular target: T1, luciferase (Photinus pyralis, UniProt P08659, K549A/L550V/N119G/N50D/S548I); test: Acute effect on luciferase activity (cell lysate, 2 h); assay type: biochemical; details: 80 μM, 2-h treatment
T1 construct: expressed in transfected cells; host or cells: human hepatic stellate LX-2 cells transfected with pGL4.17-COL1A1P; lysate used
Description: Then, their anti-COL1A1 potencies were verified by testing the half maximal inhibition concentration (IC50) values upon COL1A1 expression expression in LX-2 cells. […] Then, compounds 4i, 4n and 4p with the lower IC50 values were selected as the key compounds for further studies.
as §1

[3] = LX-2 cell survival, sulforhodamine B (SRB) assay; assay type: cell-based; details: human, LX-2 cells
Description: LX-2 cell survival was measured by sulforhodamine B (SRB) assay. The cells were seeded in 96-well plates at the density of 2 × 10^4/well and cultured in DMEM/GlutaMAX I medium with 10% fetal bovine serum (FBS) with 5% CO2, 37 °C. The cells were treated by the aloperine derivates for 24 h, washed by PBS for three times. Then the cells were fixed with 10% (wt/vol) trichloroacetic acid for 1 h and stained with SRB for 0.5 h. Subsequently, the protein-bound dye was dissolved in 10 mM Tris base solution after removing excess SRB dye washing repeatedly with 1% (vol/vol) acetic acid, the optical density (OD) was determined at 510 nm with a microplate reader.

[4] = HepG2 cell survival, MTT assay; assay type: cell-based; details: human, HepG2 cells
Description: HepG2 cell survival was measured by MTT assay. HepG2 cells, at density of 6x10^3 cells/well in 96-well culture plates, were incubated with the aloperine derivates at various concentrations until the cells at 50% confluence for 24 h. 20 µL of the MTT (5 mg/mL) solution was added to each plate and incubated with 5% CO2, 37 °C for 4 h. Subsequently, withdrawing the culture supernatant containing MTT, 150 µL DMSO was used for dissolving the formazan crystal. The absorbance was measured using a microplate reader at 570 nm.

[5] = tested on: COL1A1 mRNA; test: RT-PCR of COL1A1 mRNA in LX-2 cells; assay type: cell-based, human; details: 24 h
Description: (§2) In the absence or presence of TGF-β1 (2 ng/mL) treatment, LX-2 cells were treated with key compounds 4n and 4p at concentrations of 6 μM and 12 μM, or 4i at a concentration of 12 μM, respectively.
LX-2 cells were laid on 6-well plate and cultured in DMEM supplemented with 10% fetal bovine serum (FBS) in a 5% CO2 atmosphere at 37 °C. And serum-free culture was required until the cells reached 90−95% confluence. […] Total RNA of the LX-2 cells was isolated using TRIzol reagent, purified using NucleoSpin RNA Clean-up. Reverse transcription was performed with Transcriptor first strand cDNA synthesis kit. Subsequently, the cDNA levels was determined by ABI 7500 Fast Real-Time PCR System using TaqMan probes of COL1A1, TGF-β1, α-SMA, and GAPDH (sequence not disclosed by ABI) and FastStart Universal Probe master mix (Roche, Indianapolis, IN, USA).

[6] = tested on: TGFB1 mRNA; test: RT-PCR of TGFB1 mRNA in LX-2 cells; assay type: cell-based, human; details: TGF-β1 (2 ng/mL) stimulation, 12 μM, 24 h
Description: as §2
Since the stimulation of TGF-β1 provokes the expression of a series of fibrosis genes, for example COL1A1 and TGFB1 [24, 25], the effects of key compounds on TGF-β1 expression were evaluated by RT-PCR and western blot assays. As shown in Figure 2B and Supplementary Table S1, the expression of TGFB1 mRNA was maintained at a low level, and the addition of a key compound seemed to have little effect on its expression.
LX-2 cells were laid on 6-well plate and cultured in DMEM supplemented with 10% fetal bovine serum (FBS) in a 5% CO2 atmosphere at 37 °C. And serum-free culture was required until the cells reached 90−95% confluence. After 24 h, cells were incubated with […] concentrations of aloperine derivatives in the presence of 2 ng/mL of TGF-β1 for 24 h. Total RNA of the LX-2 cells was isolated using TRIzol reagent, purified using NucleoSpin RNA Clean-up. Reverse transcription was performed with Transcriptor first strand cDNA synthesis kit. Subsequently, the cDNA levels was determined by ABI 7500 Fast Real-Time PCR System using TaqMan probes of COL1A1, TGF-β1, α-SMA, and GAPDH (sequence not disclosed by ABI) and FastStart Universal Probe master mix (Roche, Indianapolis, IN, USA).

[7] = in vivo; details: both sexes, Kunming, mouse, po
Description: To evaluate the safety profiles of the key compounds 4i, 4n and 4p, an acute toxicity test was performed in Kunming mice. Compound 4i was given orally in a single-dosing experiment at 100, 300 and 400 mg kg^−1, while 4n at 300, 400, 500 mg kg^−1, and 4p at 200, 400, 500 mg kg^−1. The mice were closely monitored for 7 days.
Male and Female Kunming mice with weight of 20.0 ±1.0 g were obtained from the Institute of Laboratory Animal Science (Beijing, China). Animals wer e cared according to the institutional guidelines of the Institute of Medicinal Biotechnology, CAMS&PUMC (IMB-20190610D3), and fed with regular rodent chow and housed in an air conditioned room. The mice were randomly divided into different groups with four male mice and four female mice each. Each compound was given orally in a single-dosing experiment, the dose of 4i was 100, 300 and 400 mg kg^−1, the dose of 4n was 300, 400, 500 mg kg^−1, the dose of 4p was 200, 400, 500 mg kg^−1 (ddH2O as control). The mice were closely monitored for 7 days. Body weight as well as survival was monitored.

T1 sequence (P08659 whole entry N50D/N119G/S548I/K549A/L550V): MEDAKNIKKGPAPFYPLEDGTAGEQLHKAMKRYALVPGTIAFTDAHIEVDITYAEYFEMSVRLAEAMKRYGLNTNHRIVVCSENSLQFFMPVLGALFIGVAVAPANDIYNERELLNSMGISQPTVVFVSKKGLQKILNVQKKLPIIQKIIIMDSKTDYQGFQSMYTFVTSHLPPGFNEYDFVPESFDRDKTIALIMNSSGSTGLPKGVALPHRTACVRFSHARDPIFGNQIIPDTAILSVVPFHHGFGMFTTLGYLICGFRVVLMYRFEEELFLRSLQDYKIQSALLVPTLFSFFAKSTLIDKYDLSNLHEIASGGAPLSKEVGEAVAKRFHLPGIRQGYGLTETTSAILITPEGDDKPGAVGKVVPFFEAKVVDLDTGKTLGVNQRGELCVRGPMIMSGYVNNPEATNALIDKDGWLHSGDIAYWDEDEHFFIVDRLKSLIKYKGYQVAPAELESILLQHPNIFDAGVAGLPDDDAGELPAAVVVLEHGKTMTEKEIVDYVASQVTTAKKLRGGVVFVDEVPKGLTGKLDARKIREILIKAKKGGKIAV

| Compound | inhibition at 40 µM [1] | inhibition at 80 µM [1] | IC50 [1] | Acute effect on luciferase activity [2] | CC50 at 24 h [3] | CC50 at 24 h [4] | Inhibitory rate of COL1A1 transcription (mRNA) ([5]; TGF-β1 (2 ng/mL) stimulation, 12 μM) | Inhibitory rate of COL1A1 transcription (mRNA) ([5]; absence of TGF-β1, 12 μM) | Inhibitory rate of TGFB1 mRNA expression [6] | LD50 at 7 days [7] | melting point |
| --- | --- | --- | --- | --- | --- | --- | --- | --- | --- | --- | --- |
| O=C(CN1CCCC2=C[C@H]3C[C@H](CN4CCCC[C@H]34)[C@@H]21)Nc1cc(Cl)cc(OC(F)(F)F)c1 [4i, 12N-N′-(3-Chloro-5-trifluoromethoxyphenyl)carbamoylmethyl aloperine] | 99.9% | 99.9% | 8.4 ± 0.3 µM | minimal inhibition | 19.5 ± 1.8 µM | 22 ± 4.6 µM | 97.4% | 45% | 75.4% | 100 mg/kg |  |
| O=C(CNS(=O)(=O)c1cc(C(F)(F)F)cc(C(F)(F)F)c1)N1CCCC2=C[C@H]3C[C@H](CN4CCCC[C@H]34)[C@@H]21 [10g, 12N-N′-(3,5-Ditrifluoromethyl)benzenesulfonylaminoacetyl aloperine] | 48.4 ± 24.7% | 84 ± 0.5% | 27.6 ± 3 µM | minimal inhibition | 68.6 ± 11.7 µM | 113 ± 3.4 µM |  |  |  |  | 78 to 80 °C |
